Assay results published in patent publication US6153651A, “Ortho-substituted benzoylguanidines, process for their preparation, their use as a medicament or diagnostic, and medicament comprising them” (Hoechst Aktiengesellschaft, priority 1996, dated 2000).
Structures can show the parent of a compound that is named as a salt.

Target: T1, rabbit erythrocyte Na^+ /H^+ exchanger (Oryctolagus cuniculus, UniProt P23791)
T1 construct: endogenous in cells; host or cells: rabbit erythrocytes (whole heparinized blood of cholesterol-fed New Zealand White rabbits, Ivanovas)
T1 sequence (P23791 whole entry): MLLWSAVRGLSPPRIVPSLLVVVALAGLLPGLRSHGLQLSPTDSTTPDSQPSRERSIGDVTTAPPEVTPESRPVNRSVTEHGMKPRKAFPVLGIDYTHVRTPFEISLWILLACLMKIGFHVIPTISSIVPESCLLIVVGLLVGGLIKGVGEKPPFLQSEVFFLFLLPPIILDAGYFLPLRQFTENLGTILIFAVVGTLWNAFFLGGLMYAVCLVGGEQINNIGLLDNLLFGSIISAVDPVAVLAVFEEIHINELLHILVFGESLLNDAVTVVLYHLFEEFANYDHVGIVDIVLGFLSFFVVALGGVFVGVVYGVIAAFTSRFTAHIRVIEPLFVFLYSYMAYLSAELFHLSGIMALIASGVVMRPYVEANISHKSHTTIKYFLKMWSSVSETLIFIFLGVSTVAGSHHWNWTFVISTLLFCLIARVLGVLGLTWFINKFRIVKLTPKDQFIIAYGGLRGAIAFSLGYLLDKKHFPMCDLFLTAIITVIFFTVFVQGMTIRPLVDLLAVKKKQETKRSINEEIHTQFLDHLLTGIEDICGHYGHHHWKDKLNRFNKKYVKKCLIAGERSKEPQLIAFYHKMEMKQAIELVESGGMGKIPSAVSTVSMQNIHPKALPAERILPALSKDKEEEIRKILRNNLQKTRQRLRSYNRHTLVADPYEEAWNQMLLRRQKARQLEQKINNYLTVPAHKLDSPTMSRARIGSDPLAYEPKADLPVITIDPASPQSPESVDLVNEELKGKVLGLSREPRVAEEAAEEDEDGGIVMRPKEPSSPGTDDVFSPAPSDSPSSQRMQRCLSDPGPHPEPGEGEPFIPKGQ
Assay: Inhibition of the rabbit erythrocyte Na^+ /H^+ exchanger (amiloride-sensitive Na^+ influx, flame photometry)
Assay type: cell-based, rabbit (New Zealand White)
Details: erythrocytes of rabbits fed 2% cholesterol for six weeks; pH 7.4, 37° C., hyperosmolar salt/sucrose medium
Description: Inhibition of the rabbit erythrocyte Na^+ /H^+ exchanger New Zealand White rabbits (Ivanovas) were given a standard diet containing 2% cholesterol for six weeks in order to activate Na^+ /H^+ exchange and thus render it possible to use flame photometry to determine the influx of Na+into the erythrocytes by way of Na^+ /H^+ exchange. The blood was withdrawn from the aural arteries and rendered incoagulable by adding 25 IU of potassium heparin. A part of each sample was used for determining the hematocrit in duplicate by means of centrifugation. Aliquots of in each case 100 μl were used to measure the initial content of Na^+ in the erythrocytes.
In order to determine the amiloride-sensitive sodium influx, 100 μl of each blood sample were in each case incubated, at pH 7.4 and 37° C., in 5 ml of a hyperosmolar salt/sucrose medium (mmol/l: 140 NaCl, 3 KCl, 150 sucrose, 0.1 ouabain, 20 tris(hydroxymethyl)aminomethane). After that, the erythrocytes were washed three times with an ice cold solution of MgCl2 /ouabain (mmol/l: 112 MgCl2, 0.1 ouabain) and hemolyzed in 2.0 ml of distilled water. The intracellular content of sodium was determined by flame photometry.
The net influx of Na^+ was calculated from the difference between the initial sodium values and the sodium content of the erythrocytes after incubation. The amiloride-inhibitable sodium influx was obtained from the difference in the sodium content of the erythrocytes after incubation with and without 3×10^-4 mol/l amiloride. The same procedure was used in the case of the novel compounds.

IC50 | SMILES
17 nM | COc1c(I)cc(C(F)(F)F)cc1C(=O)N=C(N)N [Example 2, 2-Methoxy-3-iodo-5-trifluoromethylbenzoylguanidine hydrochloride]
200 nM | COc1cc(OC)c(C(F)(F)F)cc1C(=O)N=C(N)N [Example 7, 2,4-Dimethoxy-5-trifluoromethylbenzoylguanidine hydrochloride]
> 1000 nM | COc1cc(C)ccc1C(=O)N=C(N)N [Example 5, 2-Methoxy-4-methylbenzoylguanidine hydrochloride]
1000 nM | COc1c(C(=O)N=C(N)N)cc(C(C)(C)C)cc1C(C)(C)C [Example 6, 3,5-Bis-tert-butyl-2-methoxybenzoylguanidine hydrochloride]
53 nM | COc1cc(C(F)(F)F)cc(C(=O)N=C(N)N)c1OC [Example 1, 2,3-Dimethoxy-5-trifluoromethylbenzoylguanidine hydrochloride]
